In US20240376056A1, “PHENYL ACETAMIDE BASED IL-17A MODULATORS AND USES THEREOF” (DiCE Alpha, Inc., priority 2021, published 2024):
Structures can show the parent of a compound that is named as a salt.

Target: T1, IL-17A/A (Homo sapiens, UniProt Q16552)
T1 construct: purchased Genscript Z03228
T1 sequence (Q16552 24-155): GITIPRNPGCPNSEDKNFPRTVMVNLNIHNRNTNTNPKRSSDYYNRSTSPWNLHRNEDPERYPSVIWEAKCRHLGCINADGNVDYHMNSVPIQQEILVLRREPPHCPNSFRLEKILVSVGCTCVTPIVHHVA
Experiment: HEK-Blue IL-17A/A inhibition assay (SEAP reporter)
Assay type: cell-based
Conditions: HEK-Blue cells (HEK 293 expressing IL-17RA, IL-17RC, Act1); IL-17A/A stimulation; 20 hours; SEAP read at A630; 4-parameter fit
Method in brief: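 HEK 293 cells engineered with IL-17RA, IL-17RC and Act1 (NFκB-driven SEAP) given titrated compound (top final 10, 1 or 0.3 uM; 0.1% DMSO) just before IL-17A/A, then incubated 20 h. SEAP in media developed with Quanti-Blue, read at A630; IC50 by 4-parameter nonlinear fit.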

IC50 | SMILES
100 to 1000 nM | CC(C(=O)NCC(F)(F)F)c1cc(F)c(NC(=O)[C@@H](NC(=O)c2ccnn2C(C)C)C(C2CC2)C2CC2)cc1CN (stereo partly drawn) [Compound 119, N-((2S)-1-((5-(aminomethyl)-2-fluoro-4-(1-oxo-1-((2,2,2-trifluoroethyl)amino)propan-2-yl)phenyl)amino)-3,3-dicyclopropyl-1-oxopropan-2-yl)-1-isopropyl-1H-pyrazole-5-carboxamide]
100 to 1000 nM | CCC(C(=O)NCC(F)(F)F)c1ccc(NC(=O)[C@@H](NC(=O)c2ccnn2C(C)C)C(C2CC2)C2CC2)c(F)c1 (single isomer, unassigned) [Compound 149]
> 1000 nM | CC(C)n1nccc1C(=O)N[C@H](C(=O)Nc1ccc([C@H](C)C(=O)NCC(F)(F)CNC(=O)OC(C)(C)C)cc1F)C(C1CC1)C1CC1 [Compound 35, tert-butyl (3-((S)-2-(4-((S)-3,3-dicyclopropyl-2-(1-isopropyl-1H-pyrazole-5-carboxamido)propanamido)-3-fluorophenyl)propanamido)-2,2-difluoropropyl)carbamate]
> 1000 nM | CCn1nccc1C(=O)N[C@H](C(=O)Nc1ccc([C@H](C)C(=O)N(C)CC(F)(F)F)cc1F)[C@H](c1ccccc1Cl)C(C)C [Compound 73, N-((2S,3S)-3-(2-chlorophenyl)-1-((2-fluoro-4-((S)-1-(methyl(2,2,2-trifluoroethyl)amino)-1-oxopropan-2-yl)phenyl)amino)-4-methyl-1-oxopentan-2-yl)-1-ethyl-1H-pyrazole-5-carboxamide]
100 to 1000 nM | CC(C)n1nccc1C(=O)N[C@H](C(=O)Nc1ccc([C@H](C)C(=O)N2CC(O)CC2C(F)(F)F)cc1F)C(C1CC1)C1CC1 (single isomer, unassigned) [Compound 143]
> 1000 nM | CC(C)n1nccc1C(=O)N[C@H](C(=O)Nc1ccc([C@H](C)C(=O)NCc2ccccc2C(F)(F)F)cc1F)C(C1CC1)C1CC1 [Compound 36, N-((S)-1.1-dicyclopropyl-3-((2-fluoro-4-((S)-1-oxo-1-((2-(trifluoromethyl)benzyl)amino)propan-2-yl)phenyl)amino)-3-oxopropan-2-yl)-1-isopropyl-1H-pyrazole-5-carboxamide]
100 to 1000 nM | CC(C)n1nccc1C(=O)N[C@H](C(=O)Nc1ccc([C@H](C)C(=O)NC(CN)C(F)(F)F)cc1F)C(C1CC1)C1CC1 (stereo partly drawn) [Compound 157, N-((2S)-1-((4-((2S)-1-((3-amino-1,1,1-trifluoropropan-2-yl)amino)-1-oxopropan-2-yl)-2-fluorophenyl)amino)-3.3-dicyclopropyl-1-oxopropan-2-yl)-1-isopropyl-1H-pyrazole-5-carboxamide hydrochloride]
100 to 1000 nM | CC(C(=O)NC1CCC1(F)F)c1cc(F)c(NC(=O)[C@@H](NC(=O)c2ccnn2C(C)C)C(C2CC2)C2CC2)cc1C(F)(F)F (single isomer, unassigned) [Compound 230]
< 100 nM | CC(C)n1nccc1C(=O)N[C@H](C(=O)Nc1ccc([C@H](C)C(=O)NCC(F)(F)F)cc1F)C(C1CC1)C1CC1 [Compound 82, N-((S)-1,1-dicyclopropyl-3-((2-fluoro-4-((S)-1-oxo-1-((2,2,2-trifluoroethyl)amino)propan-2-yl)phenyl)amino)-3-oxopropan-2-yl)-1-isopropyl-1H-pyrazole-5-carboxamide]
< 100 nM | COc1cc(NC(=O)[C@@H](NC(=O)c2ccnn2C(C)C)C(C2CC2)C2CC2)c(F)cc1C(C)C(=O)NC(CO)C(F)(F)F (single isomer, unassigned) [Compound 180]
100 to 1000 nM | CCn1nccc1C(=O)N[C@H](C(=O)Nc1ccc(C(C)C(=O)N2CCC(C(F)(F)F)C2)cc1F)C(C1CC1)C1CC1 (stereo partly shown) [Compound 221]
< 100 nM | COCc1cc(NC(=O)[C@@H](NC(=O)c2ccnn2C(C)C)C(C2CC2)C2CC2)c(F)cc1C(C)C(=O)NCC(F)(F)F (single isomer, unassigned) [Compound 124]
< 100 nM | CCC(C(=O)N(C)CC(F)(F)F)c1ccc(NC(=O)[C@@H](NC(=O)c2ccnn2C(C)C)C(C2CC2)C2CC2)c(F)c1 (stereo partly shown) [Compound 192]
100 to 1000 nM | CC(C(=O)NCC(F)(F)F)c1cc(F)c(NC(=O)[C@@H](NC(=O)c2ccnn2C(C)C)C(C2CC2)C2CC2)cc1Cl (single isomer, unassigned) [Compound 109]
< 100 nM | CCOc1cc(NC(=O)[C@@H](NC(=O)c2ccnn2C(C)C)C(C2CC2)C2CC2)c(F)cc1C(C)C(=O)N(C)CC(F)(F)F (stereo partly shown) [Compound 195]
100 to 1000 nM | CCn1nccc1C(=O)N[C@H](C(=O)Nc1cc(C(F)(F)F)c(C(C)C(=O)N2CC(F)(F)CC2C(F)(F)F)cc1F)C(C1CC1)C1CC1 (stereo partly shown) [Compound 239]
100 to 1000 nM | C[C@H](C(=O)NCC(F)(F)F)c1ccc(NC(=O)[C@@H](NC(=O)c2ccnn2CCn2ccnc2)C(C2CC2)C2CC2)c(F)c1 [Compound 95, -(2-(1H-imidazol-1-yl)ethyl)-N-((S)-1,1-dicyclopropyl-3-((2-fluoro-4-((S)-1-oxo-1-((2,2,2-trifluoroethyl)amino)propan-2-yl)phenyl)amino)-3-oxopropan-2-yl)-1H-pyrazole-5-carboxamide]
100 to 1000 nM | CCn1nccc1C(=O)N[C@H](C(=O)Nc1ccc([C@H](C)C(=O)N(CCO)CC(F)(F)F)cc1F)C(C1CC1)C1CC1 [Compound 10, N-((S)-1,1-dicyclopropyl-3-((2-fluoro-4-((S)-1-((2-hydroxyethyl)(2,2,2-trifluoroethyl)amino)-1-oxopropan-2-yl)phenyl)amino)-3-oxopropan-2-yl)-1-ethyl-1H-pyrazole-5-carboxamide]
> 1000 nM | CC(C(=O)NCC(F)(F)F)c1cc(F)c(NC(=O)[C@@H](NC(=O)c2ccnn2C)C(C2CC2)C2CC2)cc1OC(F)(F)F (stereo partly shown) [Compound 247]
100 to 1000 nM | CC(C(=O)NCC(F)(F)F)c1cc(F)c(NC(=O)[C@@H](NC(=O)c2ccnn2C(C)C)C(C2CC2)C2CC2)cc1N1CCCC1=O (stereo partly shown) [Compound 187]
< 100 nM | CNc1cc(NC(=O)[C@@H](NC(=O)c2ccnn2C(C)C)C(C2CC2)C2CC2)c(F)cc1C(C)C(=O)NCC(F)(F)F (single isomer, unassigned) [Compound 164]
> 1000 nM | CC(C)n1nccc1C(=O)N[C@H](C(=O)Nc1ccc([C@H](C)C(=O)N[C@H](C)C(F)(F)F)cc1F)C(C1CC1)C1CC1 [Compound 54, N-((S)-1,1-dicyclopropyl-3-((2-fluoro-4-((S)-1-oxo-1-(((R)-1,1,1-trifluoropropan-2-yl)amino)propan-2-yl)phenyl)amino)-3-oxopropan-2-yl)-1-isopropyl-1H-pyrazole-5-carboxamide]
